Laboratory results reported in patent US20250235434A1, “RIFABUTIN ANALOGS FOR THE TREATMENT OF DISEASE” (BIOVERSYS AG, priority 2022, published 2025).
Converted amounts (≈) assume the structure as drawn. Where two headings read alike, the source gives them in different places.

Legend:
Type in all cases: cell-based
[1] = tested on: A. baumannii (HUMC1 strain); test: MIC by broth microdilution against A. baumannii; details: Acinetobacter baumannii, RPMI medium supplemented with 10% FCS, 35° C. for 20 hours, visual reading
[2] = tested on: S. aureus (UAMS-1625 strain); test: MIC by broth microdilution against S. aureus; details: Staphylococcus aureus, 20 h, read-out: MIC S. aureus
[3] = tested on: M. abscessus (ATCC 19977); test: MIC by broth microdilution against M. abscessus; details: Mycobacteroides abscessus
M. kansasii (ATCC 12478) = test: MIC against M. kansasii (resazurin assay); details: Mycobacterium kansasii, ATCC12478, 168 h, Middlebrook 7H9 + ADC, 90% growth inhibition, 7 days
M. xenopi (ATCC 19250) = test: MIC against M. xenopi (resazurin assay); details: Mycobacterium xenopi, ATCC19250, 168 h, Middlebrook 7H9 + ADC, 90% growth inhibition, 7 days
[4] = tested on: M. tuberculosis H37Rv (ATCC 27294); test: microbe, parasite or virus in culture; details: Mycobacterium tuberculosis, 120 h
M. avium (ATCC 25291) = test: MIC against M. avium (resazurin assay); details: Mycobacterium avium, ATCC25291, 168 h, Middlebrook 7H9 + ADC, 90% growth inhibition, 7 days
[5] = tested on: M. smegmatis (ATCC 700084); test: MIC against M. smegmatis (resazurin assay); details: Mycolicibacterium smegmatis, ATCC700084, Middlebrook 7H9 + ADC, 90% growth inhibition, 20 h
[6] = ATCC19977, 20 h, ATCC 19977, Middlebrook 7H9 broth with ADC supplement, visual reading, read-out: MIC M. abscessus

| SMILES | MIC [1] [µg/mL] | MIC [2] [µg/mL] | MIC [3, 6] [µg/mL] | MIC (M. kansasii (ATCC 12478)) [µg/mL] | MIC (M. xenopi (ATCC 19250)) [µg/mL] | MIC [4] [µg/mL] | MIC (M. avium (ATCC 25291)) [µg/mL] | MIC [5] [µg/mL] | MIC ([3]; ATCC19977, tested M. abscessus strains, read-out: MIC value on M. abscessus) [µg/mL] |
| --- | --- | --- | --- | --- | --- | --- | --- | --- | --- |
| CO[C@H]1/C=C/O[C@@]2(C)Oc3c(C)c(O)c4c(c3C2=O)C2=NC3(CCN(CC(C)C)CC3)NC2=C(NC(=O)/C(C)=C\C=C\[C@H](C)[C@H](O)[C@@H](C)[C@@H](O)[C@@H](C)[C@H](OC(=O)CNCC2CCN(C)CC2)[C@@H]1C)C4=O [Compound 1] | ≤ 0.002 | 0.06 (≈ 0.0617 µM) | 2 (≈ 2.06 µM) |  |  |  |  |  |  |
| CO[C@H]1/C=C/O[C@@]2(C)Oc3c(C)c(O)c4c(c3C2=O)C2=NC3(CCN(CC(C)C)CC3)NC2=C(NC(=O)/C(C)=C\C=C\[C@H](C)[C@H](O)[C@@H](C)[C@@H](O)[C@@H](C)[C@H](OC(=O)CNC2CCN(C)CC2)[C@@H]1C)C4=O [Compound 2] | ≤ 0.002 | 0.06 (≈ 0.0626 µM) | 2 (≈ 2.09 µM) | 0.02 | 0.08 | 0.02 (≈ 0.0209 µM) | 1.2 | 0.03 |  |
| CO[C@H]1/C=C/O[C@@]2(C)Oc3c(C)c(O)c4c(c3C2=O)C2=NC3(CCN(CC(C)C)CC3)NC2=C(NC(=O)/C(C)=C\C=C\[C@H](C)[C@H](O)[C@@H](C)[C@@H](O)[C@@H](C)[C@H](OC(=O)CN2CCC(N(C)C)CC2)[C@@H]1C)C4=O [Compound 3] | ≤ 0.002 | 0.03 (≈ 0.0308 µM) | 1 (≈ 1.03 µM) | 0.01 | 0.07 | 0.008 (≈ 0.00822 µM) | 1.2 | 0.03 |  |
| CO[C@H]1/C=C/O[C@@]2(C)Oc3c(C)c(O)c4c(c3C2=O)C2=NC3(CCN(CC(C)C)CC3)NC2=C(NC(=O)/C(C)=C\C=C\[C@H](C)[C@H](O)[C@@H](C)[C@@H](O)[C@@H](C)[C@H](OC(=O)CN2CCCCC2)[C@@H]1C)C4=O [Compound 4] | 0.004 (≈ 0.0043 µM) | 0.06 (≈ 0.0645 µM) | 4 (≈ 4.3 µM) |  |  |  |  |  |  |
| CO[C@H]1/C=C/O[C@@]2(C)Oc3c(C)c(O)c4c(c3C2=O)C2=NC3(CCN(CC(C)C)CC3)NC2=C(NC(=O)/C(C)=C\C=C\[C@H](C)[C@H](O)[C@@H](C)[C@@H](O)[C@@H](C)[C@H](OC(=O)CN2CCN(C)CC2)[C@@H]1C)C4=O [Compound 6] | ≤ 0.002 | 0.03 (≈ 0.0317 µM) | 1 (≈ 1.06 µM) | 0.01 | 0.04 | 0.008 (≈ 0.00846 µM) | 1.3 | 0.03 |  |
| CO[C@H]1/C=C/O[C@@]2(C)Oc3c(C)c(O)c4c(c3C2=O)C2=NC3(CCN(CC(C)C)CC3)NC2=C(NC(=O)/C(C)=C\C=C\[C@H](C)[C@H](O)[C@@H](C)[C@@H](O)[C@@H](C)[C@H](OC(=O)CN2CCN(c3ccccc3)CC2)[C@@H]1C)C4=O [Compound 7] | 0.06 (≈ 0.0596 µM) | 0.5 (≈ 0.496 µM) | 0.5 (≈ 0.496 µM) |  |  |  |  |  |  |
| CO[C@H]1/C=C/O[C@@]2(C)Oc3c(C)c(O)c4c(c3C2=O)C2=NC3(CCN(CC(C)C)CC3)NC2=C(NC(=O)/C(C)=C\C=C\[C@H](C)[C@H](O)[C@@H](C)[C@@H](O)[C@@H](C)[C@H](OC(=O)CNCCN2CCCCC2)[C@@H]1C)C4=O [Compound 8] | ≤ 0.002 | 0.06 (≈ 0.0617 µM) | 1 (≈ 1.03 µM) |  |  |  |  |  |  |
| CO[C@H]1/C=C/O[C@@]2(C)Oc3c(C)c(O)c4c(c3C2=O)C2=NC3(CCN(CC(C)C)CC3)NC2=C(NC(=O)/C(C)=C\C=C\[C@H](C)[C@H](O)[C@@H](C)[C@@H](O)[C@@H](C)[C@H](OC(=O)CNCCN2CCN(C)CC2)[C@@H]1C)C4=O [Compound 9] | ≤ 0.002 | 0.06 (≈ 0.0607 µM) | 2 (≈ 2.02 µM) |  |  |  |  |  |  |
| CO[C@H]1/C=C/O[C@@]2(C)Oc3c(C)c(O)c4c(c3C2=O)C2=NC3(CCN(CC(C)C)CC3)NC2=C(NC(=O)/C(C)=C\C=C\[C@H](C)[C@H](O)[C@@H](C)[C@@H](O)[C@@H](C)[C@H](OC(=O)CNCCN2CCOCC2)[C@@H]1C)C4=O [Compound 10] | ≤ 0.002 | 0.03 (≈ 0.0308 µM) | 1 (≈ 1.03 µM) | 0.015 | 0.01 | 0.008 (≈ 0.0082 µM) | 1 | 0.1 |  |
| CO[C@H]1/C=C/O[C@@]2(C)Oc3c(C)c(O)c4c(c3C2=O)C2=NC3(CCN(CC(C)C)CC3)NC2=C(NC(=O)/C(C)=C\C=C\[C@H](C)[C@H](O)[C@@H](C)[C@@H](O)[C@@H](C)[C@H](OC(=O)CNCCCN2CCOCC2)[C@@H]1C)C4=O [Compound 11] | 0.008 (≈ 0.00809 µM) | 0.06 (≈ 0.0607 µM) | 2 (≈ 2.02 µM) |  |  |  |  |  |  |
| CO[C@H]1/C=C/O[C@@]2(C)Oc3c(C)c(O)c4c(c3C2=O)C2=NC3(CCN(CC(C)C)CC3)NC2=C(NC(=O)/C(C)=C\C=C\[C@H](C)[C@H](O)[C@@H](C)[C@@H](O)[C@@H](C)[C@H](OC(=O)CNCCN(C)C)[C@@H]1C)C4=O [Compound 13] | ≤ 0.002 | 0.03 (≈ 0.0321 µM) | 2 (≈ 2.14 µM) |  |  |  |  |  |  |
| CO[C@H]1/C=C/O[C@@]2(C)Oc3c(C)c(O)c4c(c3C2=O)C2=NC3(CCN(CC(C)C)CC3)NC2=C(NC(=O)/C(C)=C\C=C\[C@H](C)[C@H](O)[C@@H](C)[C@@H](O)[C@@H](C)[C@H](OC(=O)CNCC(C)C)[C@@H]1C)C4=O [Compound 17] | 0.008 (≈ 0.00871 µM) | 0.06 (≈ 0.0653 µM) | 4 (≈ 4.36 µM) |  |  |  |  |  |  |
| CO[C@H]1/C=C/O[C@@]2(C)Oc3c(C)c(O)c4c(c3C2=O)C2=NC3(CCN(CC(C)C)CC3)NC2=C(NC(=O)/C(C)=C\C=C\[C@H](C)[C@H](O)[C@@H](C)[C@@H](O)[C@@H](C)[C@H](OC(=O)CN2CCC(Cc3ccccc3)CC2)[C@@H]1C)C4=O [Compound 21] | 0.125 (≈ 0.123 µM) | 4 (≈ 3.92 µM) | 2 (≈ 1.96 µM) |  |  |  |  |  |  |
| COc1cc(CC2CCN(CC(=O)O[C@H]3[C@H](C)[C@H](O)[C@H](C)[C@@H](O)[C@@H](C)/C=C/C=C(/C)C(=O)NC4=C5NC6(CCN(CC(C)C)CC6)N=C5c5c(c(O)c(C)c6c5C(=O)[C@@](C)(O/C=C/[C@H](OC)[C@H]3C)O6)C4=O)CC2)cc(C(F)(F)F)c1 [Compound 22] | 0.25 (≈ 0.224 µM) | 4 (≈ 3.58 µM) | 4 (≈ 3.58 µM) |  |  |  |  |  |  |
| CO[C@H]1/C=C/O[C@@]2(C)Oc3c(C)c(O)c4c(c3C2=O)C2=NC3(CCN(CC(C)C)CC3)NC2=C(NC(=O)/C(C)=C\C=C\[C@H](C)[C@H](O)[C@@H](C)[C@@H](O)[C@@H](C)[C@H](OC(=O)CN2CCC(C(O)c3nccn3C)CC2)[C@@H]1C)C4=O (stereo partly drawn) [Compound 23] | 0.004 (≈ 0.00385 µM) | 0.125 (≈ 0.12 µM) | 1 (≈ 0.961 µM) |  |  |  |  |  |  |
| CO[C@H]1/C=C/O[C@@]2(C)Oc3c(C)c(O)c4c(c3C2=O)C2=NC3(CCN(CC(C)C)CC3)NC2=C(NC(=O)/C(C)=C\C=C\[C@H](C)[C@H](O)[C@@H](C)[C@@H](O)[C@@H](C)[C@H](OC(=O)CN2CCC(NC(=O)OC(C)(C)C)CC2)[C@@H]1C)C4=O [Compound 27] | 0.008 (≈ 0.00765 µM) | 0.125 (≈ 0.12 µM) | 0.25 (≈ 0.239 µM) |  |  |  |  |  |  |
| CO[C@H]1/C=C/O[C@@]2(C)Oc3c(C)c(O)c4c(c3C2=O)C2=NC3(CCN(CC(C)C)CC3)NC2=C(NC(=O)/C(C)=C\C=C\[C@H](C)[C@H](O)[C@@H](C)[C@@H](O)[C@@H](C)[C@H](OC(=O)CN2CCC(N3CCn5ccnc5C3)CC2)[C@@H]1C)C4=O [Compound 30] | ≤ 0.002 | 0.06 (≈ 0.0571 µM) | 1 (≈ 0.951 µM) |  |  |  |  |  |  |
| CO[C@H]1/C=C/O[C@@]2(C)Oc3c(C)c(O)c4c(c3C2=O)C2=NC3(CCN(CC(C)C)CC3)NC2=C(NC(=O)/C(C)=C\C=C\[C@H](C)[C@H](O)[C@@H](C)[C@@H](O)[C@@H](C)[C@H](OC(=O)CN2CC(Nc3ccc(F)cc3)C2)[C@@H]1C)C4=O [Compound 31] | 0.008 (≈ 0.00791 µM) | 0.06 (≈ 0.0593 µM) | 4 (≈ 3.96 µM) |  |  |  |  |  |  |
| CO[C@H]1/C=C/O[C@@]2(C)Oc3c(C)c(O)c4c(c3C2=O)C2=NC3(CCN(CC(C)C)CC3)NC2=C(NC(=O)/C(C)=C\C=C\[C@H](C)[C@H](O)[C@@H](C)[C@@H](O)[C@@H](C)[C@H](OC(=O)CN2CC(n3cccc3)C2)[C@@H]1C)C4=O [Compound 32] | 0.008 (≈ 0.00827 µM) | 0.03 (≈ 0.031 µM) | 2 (≈ 2.07 µM) |  |  |  |  |  |  |
| CC[N+](CC)(CC)CC(=O)O[C@H]1[C@H](C)[C@H](O)[C@H](C)[C@@H](O)[C@@H](C)/C=C/C=C(/C)C(=O)NC2=C3NC4(CCN(CC(C)C)CC4)N=C3c3c(c(O)c(C)c4c3C(=O)[C@@](C)(O/C=C/[C@H](OC)[C@H]1C)O4)C2=O [Compound 36] | ≤ 0.002 | 0.125 | 2 |  |  |  |  |  |  |
| CO[C@H]1/C=C/O[C@@]2(C)Oc3c(C)c(O)c4c(c3C2=O)C2=NC3(CCN(CC(C)C)CC3)NC2=C(NC(=O)/C(C)=C\C=C\[C@H](C)[C@H](O)[C@@H](C)[C@@H](O)[C@@H](C)[C@H](OC(=O)C[n+]2ccccc2)[C@@H]1C)C4=O [Compound 37] | 0.004 | 0.25 | 2 |  |  |  |  |  |  |
| CO[C@H]1/C=C/O[C@@]2(C)Oc3c(C)c(O)c4c(c3C2=O)C2=NC3(CCN(CC(C)C)CC3)NC2=C(NC(=O)/C(C)=C\C=C\[C@H](C)[C@H](O)[C@@H](C)[C@@H](O)[C@@H](C)[C@H](OC(=O)C[n+]2ccc(C)cc2)[C@@H]1C)C4=O [Compound 38] | 0.004 | 0.25 | 2 |  |  |  |  |  |  |
| CO[C@H]1/C=C/O[C@@]2(C)Oc3c(C)c(O)c4c(O)c(c(/C=N/N5CCN(C)CC5)c(O)c4c3C2=O)NC(=O)/C(C)=C\C=C\[C@H](C)[C@H](O)[C@@H](C)[C@@H](O)[C@@H](C)[C@H](OC(C)=O)[C@@H]1C [Rifampicin, reference compound] |  |  |  |  |  |  |  |  | > 32 |
